Measured values taken from ChEMBL document CHEMBL4814027, “Synthesis and biological evaluation of naphthoquinone phenacylimidazolium derivatives” (Bioorg Med Chem Lett, 2021).
The source made the active and inactive calls. The rule behind the calls is not given here.

Columns and labels:
[1] = test system: MCF7; assay: Induction of apoptosis in human MCF7 cells assessed as viable cells at 0.1 uM after 48 hrs by Annexin V/PI staining based flow cytometric analysis (reference value: 93.7 %); type: functional; details: read-out: Activity
[2] = test system: MCF7; assay: Induction of cell cycle arrest in human MCF7 cells assessed as accumulation at G0/G1 phase at 0.02 uM after 48 hrs by flow cytometric analysis (reference value: 66.6 %); type: functional
[3] = test system: MCF7; assay: Induction of apoptosis in human MCF7 cells assessed as late apoptotic cells at 0.2 uM after 48 hrs by Annexin V/PI staining based flow cytometric analysis (reference value: 1.23 %); type: functional
[4] = test system: MCF7; assay: Induction of apoptosis in human MCF7 cells assessed as necrotic cells at 0.2 uM after 48 hrs by Annexin V/PI staining based flow cytometric analysis (reference value: 0.017 %); type: functional
[5] = test system: MCF7; assay: Induction of cell cycle arrest in human MCF7 cells assessed as accumulation at S phase at 0.1 uM after 48 hrs by flow cytometric analysis (reference value: 24.4 %); type: functional
[6] = test system: MCF7; assay: Induction of apoptosis in human MCF7 cells assessed as inhibition of survivin protein expression at 0.02 to 0.2 uM by Western blotting analysis; type: functional, cell-based; details: dose 0.02-0.2 µM
[7] = Selectivity ratio of IC50 for mouse L929 cells to IC50 for human HeLa cells; type: toxicity; details: L929 cells versus HeLa cells, read-out: Ratio IC50
[8] = Selectivity ratio of IC50 for mouse L929 cells to IC50 for human A549 cells; type: toxicity; details: L929 cells versus A549 cells, read-out: Ratio IC50
[9] = test system: MCF7; assay: Induction of apoptosis in human MCF7 cells assessed as viable cells at 0.2 uM after 48 hrs by Annexin V/PI staining based flow cytometric analysis (reference value: 93.7 %); type: functional; details: read-out: Activity
[10] = test system: MCF7; assay: Induction of apoptosis in human MCF7 cells assessed as late apoptotic cells at 0.02 uM after 48 hrs by Annexin V/PI staining based flow cytometric analysis (reference value: 1.23 %); type: functional
[11] = test system: MCF7; assay: Induction of cell cycle arrest in human MCF7 cells assessed as accumulation at G0/G1 phase at 0.1 uM after 48 hrs by flow cytometric analysis (reference value: 66.6 %); type: functional
[12] = test system: MCF7; assay: Induction of cell cycle arrest in human MCF7 cells assessed as accumulation at G2/M phase at 0.02 uM after 48 hrs by flow cytometric analysis (reference value: 8.7 %); type: functional
[13] = test system: MCF7; assay: Induction of apoptosis in human MCF7 cells assessed as viable cells at 0.02 uM after 48 hrs by Annexin V/PI staining based flow cytometric analysis (reference value: 93.7 %); type: functional; details: read-out: Activity
[14] = test system: MCF7; assay: Induction of apoptosis in human MCF7 cells assessed as early apoptotic cells at 0.2 uM after 48 hrs by Annexin V/PI staining based flow cytometric analysis (reference value: 5.05 %); type: functional
[15] = test system: MCF7; assay: Induction of apoptosis in human MCF7 cells assessed as early apoptotic cells at 0.02 uM after 48 hrs by Annexin V/PI staining based flow cytometric analysis (reference value: 5.05 %); type: functional
[16] = test system: HeLa; assay: Cytotoxicity against human HeLa cells by MTT assay; type: functional, cell-based
[17] = test system: MCF7; assay: Induction of apoptosis in human MCF7 cells assessed as necrotic cells at 0.02 uM after 48 hrs by Annexin V/PI staining based flow cytometric analysis (reference value: 0.017 %); type: functional
[18] = test system: MCF7; assay: Induction of cell cycle arrest in human MCF7 cells assessed as accumulation at G2/M phase at 0.1 uM after 48 hrs by flow cytometric analysis (reference value: 8.7 %); type: functional
[19] = test system: MCF7; assay: Induction of cell cycle arrest in human MCF7 cells assessed as accumulation at S phase at 0.2 uM after 48 hrs by flow cytometric analysis (reference value: 24.4 %); type: functional
[20] = test system: MCF7; assay: Cytotoxicity against human MCF7 cells by MTT assay; type: functional, cell-based
[21] = test system: A549; assay: Cytotoxicity against human A549 cells by MTT assay
[22] = test system: MCF7; assay: Induction of apoptosis in human MCF7 cells assessed as early apoptotic cells at 0.1 uM after 48 hrs by Annexin V/PI staining based flow cytometric analysis (reference value: 5.05 %); type: functional
[23] = test system: MCF7; assay: Induction of cell cycle arrest in human MCF7 cells assessed as accumulation at G2/M phase at 0.2 uM after 48 hrs by flow cytometric analysis (reference value: 8.7 %); type: functional
[24] = Selectivity ratio of IC50 for mouse L929 cells to IC50 for human MCF7 cells; type: toxicity; details: L929 cells versus MCF7 cells, read-out: Ratio IC50
[25] = test system: MCF7; assay: Induction of apoptosis in human MCF7 cells assessed as increase in cleaved caspase 3 protein expression at 0.02 uM by Western blotting analysis; type: functional, cell-based
[26] = test system: MCF7; assay: Induction of cell cycle arrest in human MCF7 cells assessed as accumulation at S phase at 0.02 uM after 48 hrs by flow cytometric analysis (reference value: 24.4 %); type: functional
[27] = test system: MCF7; assay: Induction of apoptosis in human MCF7 cells assessed as late apoptotic cells at 0.1 uM after 48 hrs by Annexin V/PI staining based flow cytometric analysis (reference value: 1.23 %); type: functional
[28] = test system: MCF7; assay: Induction of apoptosis in human MCF7 cells assessed as necrotic cells at 0.1 uM after 48 hrs by Annexin V/PI staining based flow cytometric analysis (reference value: 0.017 %); type: functional
[29] = test system: L929; assay: Cytotoxicity against mouse L929 cells by MTT assay
[30] = test system: MCF7; assay: Induction of cell cycle arrest in human MCF7 cells assessed as accumulation at G0/G1 phase at 0.2 uM after 48 hrs by flow cytometric analysis (reference value: 66.6 %); type: functional

**Q.** For `CC(C)Cn1c[n+](CC(=O)c2cccs2)c2c1C(=O)c1ccccc1C2=O.[Br-]`, which viability at 0.1 µM [1] is on record?
**A.** The viability at 0.1 µM was 26%.

**Q.** And the Activity [2]?
**A.** Its Activity is 56.6%.

**Q.** What about the Activity [3] of the same compound?
**A.** The Activity was 7.77%.

**Q.** What about the Activity [4] of the same compound?
**A.** Its Activity is 0.98%.

**Q.** What about the Activity [5] of the same compound?
**A.** Its Activity is 35.6%.

**Q.** What about the Activity [6] of the same compound?
**A.** The Activity was “Active”.

**Q.** And the selectivity ratio [7]?
**A.** Its selectivity ratio is 21.3.

**Q.** And the selectivity ratio [8]?
**A.** The selectivity ratio was 61.

**Q.** And the viability at 0.2 µM [9]?
**A.** Its viability at 0.2 µM is 7.84%.

**Q.** And the Activity [10]?
**A.** Its Activity is 6.12%.

**Q.** What about the Activity [11] of the same compound?
**A.** The Activity was 52.5%.

**Q.** What about the Activity [12] of the same compound?
**A.** Its Activity is 13.1%.

**Q.** What about the viability at 0.02 µM [13] of the same compound?
**A.** The viability at 0.02 µM was 47.6%.

**Q.** And the Activity [14]?
**A.** Its Activity is 83.4%.

**Q.** What about the Activity [15] of the same compound?
**A.** The Activity was 46%.

**Q.** And the IC50 [16]?
**A.** The IC50 was 600 nM.

**Q.** What about the Activity [17] of the same compound?
**A.** Its Activity is 0.33%.

**Q.** What about the Activity [18] of the same compound?
**A.** Its Activity is 11.4%.

**Q.** And the Activity [19]?
**A.** Its Activity is 43.7%.

**Q.** What about the IC50 [20] of the same compound?
**A.** Its IC50 is 50 nM.

**Q.** And the IC50 [21]?
**A.** The IC50 was 210 nM.

**Q.** What about the Activity [22] of the same compound?
**A.** The Activity was 69.2%.

**Q.** What about the Activity [23] of the same compound?
**A.** The Activity was 10%.

**Q.** And the selectivity ratio [24]?
**A.** The selectivity ratio was 256.

**Q.** What about the Activity [25] of the same compound?
**A.** The Activity was “Active”.

**Q.** And the Activity [26]?
**A.** The Activity was 30.1%.

**Q.** And the Activity [27]?
**A.** The Activity was 4.44%.

**Q.** And the Activity [28]?
**A.** The Activity was 0.42%.

**Q.** And the IC50 [29]?
**A.** Its IC50 is 12.8 µM.

**Q.** And the Activity [30]?
**A.** The Activity was 46.2%.

**Q.** With `Cn1c[n+](CC(=O)c2ccccc2)c2c1C(=O)c1ccccc1C2=O` as the compound, how does the selectivity ratio [7] read?
**A.** Its selectivity ratio is 19.9.

**Q.** And the selectivity ratio [8]?
**A.** The selectivity ratio was 71.2.

**Q.** What about the IC50 [16] of the same compound?
**A.** The IC50 was 1500 nM.

**Q.** And the IC50 [20]?
**A.** The IC50 was 370 nM.

**Q.** And the IC50 [21]?
**A.** Its IC50 is 420 nM.

**Q.** What about the selectivity ratio [24] of the same compound?
**A.** Its selectivity ratio is 80.8.

**Q.** What about the IC50 [29] of the same compound?
**A.** The IC50 was 29.9 µM.

**Q.** With `CC(C)Cn1c[n+](CC(=O)c2ccccc2[N+](=O)[O-])c2c1C(=O)c1ccccc1C2=O` as the compound, how does the selectivity ratio [7] read?
**A.** Its selectivity ratio is 1.81.

**Q.** What about the selectivity ratio [8] of the same compound?
**A.** The selectivity ratio was 3.78.

**Q.** What about the IC50 [16] of the same compound?
**A.** Its IC50 is 73600 nM.

**Q.** What about the IC50 [20] of the same compound?
**A.** Its IC50 is 55400 nM.

**Q.** What about the IC50 [21] of the same compound?
**A.** The IC50 was 35200 nM.

**Q.** And the selectivity ratio [24]?
**A.** The selectivity ratio was 2.4.

**Q.** And the IC50 [29]?
**A.** Its IC50 is 133 µM.

**Q.** What does the source list for `COc1ccc(C(=O)C[n+]2cn(C)c3c2C(=O)c2ccccc2C3=O)cc1`?
**A.** selectivity ratio [7]: 7.31; selectivity ratio [8]: 48.8; IC50 [16]: 1600 nM; IC50 [20]: 710 nM; IC50 [21]: 240 nM; selectivity ratio [24]: 16.5; IC50 [29]: 11.7 µM
